Measurements published in patent US20220054412A1, “TOPICAL FORMULATION AND METHODS FOR […]” (priority 2020, published 2022).

Test: Use of the topical neuropathy relief formulation by patients (example cases)
Format: in vivo, human
Conditions: Patient, severe debilitating neuropathy for six years; medications tried before the formulation; high doses of gabapentin
Description: The neuropathy relief formulation is applied in an amount sufficient to cover the affected area of clean dry skin. The neuropathy relief formulation is rubbed into the affected area until no cream remains visible on the surface. The formulation can be applied one, two, three or four times per day as needed for relief of symptoms.
The following example cases are from a few of the individuals who have been successfully treated with the claimed formulation

| SMILES | outcome of earlier medications for neuropathy |
| --- | --- |
| NCC1(CC(=O)O)CCCCC1 [gabapentin] | unsuccessful |
| CCC(=O)C(CC(C)N(C)C)(c1ccccc1)c1ccccc1 (centres unmarked) [methadone] | unsuccessful |
